{"source": "patent US10131932B2", "about": "“Method for assaying a protease” (McMaster University, priority 2013, dated 2018)", "molecules": {"B1": {"name": "alpha-2-macroglobulin: thrombin-binding plasma inhibitor protein (protein, UniProt P01023 24-1474, looked up)", "Alpha-2-macroglobulin": "SVSGKPQYMVLVPSLLHTETTEKGCVLLSYLNETVTVSASLESVRGNRSLFTDLEAENDVLHCVAFAVPKSSSNEEVMFLTVQVKGPTQEFKKRTTVMVKNEDSLVFVQTDKSIYKPGQTVKFRVVSMDENFHPLNELIPLVYIQDPKGNRIAQWQSFQLEGGLKQFSFPLSSEPFQGSYKVVVQKKSGGRTEHPFTVEEFVLPKFEVQVTVPKIITILEEEMNVSVCGLYTYGKPVPGHVTVSICRKYSDASDCHGEDSQAFCEKFSGQLNSHGCFYQQVKTKVFQLKRKEYEMKLHTEAQIQEEGTVVELTGRQSSEITRTITKLSFVKVDSHFRQGIPFFGQVRLVDGKGVPIPNKVIFIRGNEANYYSNATTDEHGLVQFSINTTNVMGTSLTVRVNYKDRSPCYGYQWVSEEHEEAHHTAYLVFSPSKSFVHLEPMSHELPCGHTQTVQAHYILNGGTLLGLKKLSFYYLIMAKGGIVRTGTHGLLVKQEDMKGHFSISIPVKSDIAPVARLLIYAVLPTGDVIGDSAKYDVENCLANKVDLSFSPSQSLPASHAHLRVTAAPQSVCALRAVDQSVLLMKPDAELSASSVYNLLPEKDLTGFPGPLNDQDNEDCINRHNVYINGITYTPVSSTNEKDMYSFLEDMGLKAFTNSKIRKPKMCPQLQQYEMHGPEGLRVGFYESDVMGRGHARLVHVEEPHTETVRKYFPETWIWDLVVVNSAGVAEVGVTVPDTITEWKAGAFCLSEDAGLGISSTASLRAFQPFFVELTMPYSVIRGEAFTLKATVLNYLPKCIRVSVQLEASPAFLAVPVEKEQAPHCICANGRQTVSWAVTPKSLGNVNFTVSAEALESQELCGTEVPSVPEHGRKDTVIKPLLVEPEGLEKETTFNSLLCPSGGEVSEELSLKLPPNVVEESARASVSVLGDILGSAMQNTQNLLQMPYGCGEQNMVLFAPNIYVLDYLNETQQLTPEIKSKAIGYLNTGYQRQLNYKHYDGSYSTFGERYGRNQGNTWLTAFVLKTFAQARAYIFIDEAHITQALIWLSQRQKDNGCFRSSGSLLNNAIKGGVEDEVTLSAYITIALLEIPLTVTHPVVRNALFCLESAWKTAQEGDHGSHVYTKALLAYAFALAGNQDKRKEVLKSLNEEAVKKDNSVHWERPQKPKAPVGHFYEPQAPSAEVEMTSYVLLAYLTAQPAPTSEDLTSATNIVKWITKQQNAQGGFSSTQDTVVALHALSKYGAATFTRTGKAAQVTIQSSGTFSSKFQVDNNNRLLLQQVSLPELPGEYSMKVTGEGCVYLQTSLKYNILPEKEEFPFALGVQTLPQTCDEPKAHTSFQISLSVSYTGSRSASNMAIVDVKMVSGFIPLKPTVKMLERSNHVSRTEVSSNHVLIYLDKVSNQTLSLFFTVLQDVPVRDLKPAIVKVYDYYETDEFAIAEYNAPCSKDLGNA"}}, "key": {"[1]": {"tested_on": "Thrombin", "assay": "Thrombin activity on T13 FRET-protein substrate with inhibitors", "assay_type": "biochemical", "settings": "60 minutes incubation, alpha-2-macroglobulin 0.2 μM, PPAck 20 μM", "experimental": "The effect of the FRET-protein substrate on the thrombin activity in the absence and presence of alph-2-macroglobulin was then determined. Following addition of either thrombin (as above), thrombin incubated with alpha-2-macroglobulin for 60 minutes (as above) or thrombin incubated for 60 minutes with the thrombin inhibitor, PPAck (D-FPR-chloromethyl ketone, 20 μM), thrombin activity was determined. Thrombin was inhibited by either alpha-2-macroglobulin or PPAck, as shown by the reduction in the slope of the ratio for each (FIG. 11B)."}, "[2]": {"tested_on": "Thrombin", "assay": "Thrombin activity on substrate S2238 with inhibitors", "assay_type": "biochemical", "settings": "60 minutes incubation, alpha-2-macroglobulin 0.2 μM, PPAck 20 μM", "experimental": "The effect of thrombin substrate, S2238, on thrombin activity in the presence and absence of alpha-2-macroglobulin was then determined. Following addition of thrombin (as above), thrombin incubated with alpha-2-macroglobulin for 60 minutes (as above), thrombin incubated with PPAck (as above) for 60 minutes, or thrombin incubated with alpha-2-macroglobulin (0.2 μM) and PPAck (20 μM) for 60 minutes, to S2238, thrombin activity was determined."}, "[3]": {"tested_on": "thrombin generation in whole blood", "assay": "Thrombin generation in unanticoagulated whole blood with FRET-protein substrate", "assay_type": "biochemical, human", "settings": "for area-under-the-curve of slope of the ratio curve / maximal upslope of slope of the ratio curve / peak height of slope of the ratio curve / thrombin generation: increasing amounts of anticoagulant in whole blood", "experimental": "In this experiment, 12 μL of unanticoagulated human blood, obtained from a finger prick of a healthy human donor, was added to a plastic vessel (NUNC, Polystyrene, 384 well plate) containing the T13 FRET-protein substrate (8 μL in PIPES buffer, 4.6 μM final concentration) within 30 seconds of lancing the finger. Results were obtained on a fluorescence spectrophotometer, as above, temperature controlled to 37° C. Initially, as the mixture warms, the ratio of emission at 526 nm:581 nm decreases slightly, but then increases, initially sharply to a plateau as shown in FIG. 6.\nThe slope (first derivative) of the ratio was then determined using a mathematical program such as Excel or GraphPad Prism as shown in FIG. 7A. The curve of the slope of the ratio is smoothed using 20 neighbours using a mathematical program (Excel or GraphPad Prism). This is the typical appearance of a thrombin generation curve in plasma. Parameters that could be used to describe this curve include, but are not limited to, peak height, time to peak, lag time, maximal upslope, and area-under-the curve to a certain time point. FIG. 7B compares a) 12 μL blood combined with FRET-protein substrate (final conc. 4.6 μM) to final volume of 20 μL to b) 20 μL blood combined with FRET-protein substrate (final conc. 5.1 μM) to a final volume of 22.5 μL. The time-to-peak and lag-time are shortened and the peak height, maximal upslope and area-under-the-curve are increased in the latter where the blood is less dilute.\nThe effect of rivaroxaban on thrombin generation in the blood was determined. Unanticoagulated blood was taken from a finger prick of a healthy volunteer. The blood was added to a plastic vessel containing the FRET-protein substrate (0.62 μM) and rivaroxaban at various concentrations (to a final concentration of 5 μg/L, 25 μg/L and 50 μg/L).\nThe effect of apixaban on thrombin generation in the blood was also determined. Blood was added to FRET-protein substrate and various concentrations of apixaban was (to a final concentration of 25 μg/L, 100 μg/L, 400 μg/L and 1000 μg/L). Apixaban also alters the shape of the “slope of the ratio curve”.\nThe effect of dabigatran on thrombin generation in the blood was also determined. Blood was added to FRET-protein substrate and various concentrations of […] was (to a final concentration of 25 μg/L, 100 μg/L and 400 μg/L). Dabigatran also alters the shape of the “slope of the ratio curve”. […]"}, "[4]": {"tested_on": "Thrombin", "assay": "Fibrinogen clotting by thrombin, turbidity at 405 nm", "assay_type": "biochemical", "settings": "0.2 μM", "experimental": "The effect of alpha-2-macroglobulin on thrombin activity was determined. Thrombin (2 nM) and calcium (5 mM) were combined in PIPES buffer. Clotting was initiated by the addition of fibrinogen (3 μM). Clotting was measured by monitoring turbidity 405 nm using a spectrometer. The fibrinogen clotted within 10 minutes and remained clotted."}}}
{"molecule": "NC(N)=NCCC[C@H](NC(=O)[C@@H]1CCCN1C(=O)[C@H](N)Cc1ccccc1)C(=O)CCl", "note": "[PPAck, D-FPR-chloromethyl ketone]", "values": [{"measurement": "thrombin activity (slope of the ratio)", "setting": "[1]", "result": "inhibited"}, {"measurement": "thrombin activity (slope of absorbance)", "setting": "[2]", "result": "substantial inhibition"}]}
{"molecule": "COc1ccc(-n2nc(C(N)=O)c3c2C(=O)N(c2ccc(N4CCCCC4=O)cc2)CC3)cc1", "note": "[apixaban]", "values": [{"measurement": "time to peak", "setting": "[3]; anticoagulant in whole blood, dabigatran at higher concentrations", "result": "increase the time to peak"}, {"measurement": "area-under-the-curve of slope of the ratio curve", "setting": "[3]", "result": "decreased"}, {"measurement": "maximal upslope of slope of the ratio curve", "setting": "[3]", "result": "decreased"}, {"measurement": "peak height of slope of the ratio curve", "setting": "[3]", "result": "decreased"}, {"measurement": "thrombin generation", "setting": "[3]", "result": "decreases thrombin generation"}]}
{"molecule": "O=C(NC[C@H]1CN(c2ccc(N3CCOCC3=O)cc2)C(=O)O1)c1ccc(Cl)s1", "note": "[rivaroxaban]", "values": [{"measurement": "area-under-the-curve of slope of the ratio curve", "setting": "[3]", "result": "decreased"}, {"measurement": "maximal upslope of slope of the ratio curve", "setting": "[3]", "result": "decreased"}, {"measurement": "peak height of slope of the ratio curve", "setting": "[3]", "result": "decreased"}, {"measurement": "thrombin generation", "setting": "[3]", "result": "decrease thrombin generation"}]}
{"molecule": "corn trypsin inhibitor", "values": [{"measurement": "thrombin generation (peak of slope of ratio)", "setting": "[3]; 200 μg/mL final concentration, unanticoagulated whole blood", "result": "delay and reduce"}]}
{"molecule": "B1", "values": [{"measurement": "clotting of fibrinogen", "setting": "[4]; pre-incubation with thrombin (2 nM) for 35 minutes", "result": "reduced clotting"}, {"measurement": "clotting of fibrinogen", "setting": "[4]; pre-incubation with thrombin (2 nM) for 60 minutes", "result": "inhibited clotting"}, {"measurement": "thrombin activity (slope of the ratio)", "setting": "[1]", "result": "inhibited"}, {"measurement": "thrombin activity (slope of absorbance)", "setting": "[2]", "result": "little inhibition"}]}
